Experimental data as given in patent US9822128B1, “Substituted spirooxindoles” (KING SAUD UNIVERSITY, priority 2017, dated 2017).
Like-named read-outs stand apart in the source and are kept apart here.

Legend:
HCT-116 = experiment: MTT cytotoxicity assay, colon cancer cells; assay type: cell-based, human; conditions: for IC50: Homo sapiens, HCT-116, MTT, 48 hrs incubation
Description: (§1) The cytotoxic activity of the compounds was tested against different mammalian cancer cells, prostate carcinoma cells (PC-3), hepatocellular carcinoma (HepG2) and colon cancer cells (HCT-116) and against African green monkey kidney cell line (Vero-B). The cell lines were obtained from American Type Culture Collection (ATCC). The cells were cultivated at 37° C. and 10% CO2 in DMEM (Lonza, 12-604F) medium supplemented with 10% fetal bovine serum (FBS, Lonza, Cat. No. 14-801E), 100 IU/ml penicillin and 100 μg/ml streptomycin (Lonza, 17-602E). Cisplatin (cis-diamineplatinum (II) dichloride) was used as a positive control and was obtained from Sigma then dissolved in 0.9% saline then stored as 8 mM stock solution at −20° C. The synthesized compounds were solubilized in DMSO and stored at −20° C. 0.5% crystal violet was prepared in Methanol and was used to stain the viable cells (Feoktistova, Geserick et al. 2016). Crystal violet binds to proteins and DNA in the adherent and viable cells so the stain is an indicator for the viability of the treated cells. The viability of the cells were quantified by using MTT reagent (3-(4,5-dimethylthiazol-2-yl)-2,5-diphenyl tetrazolium bromide), which measure the activity of mitochondrial dehydrogenase in the viable cells (Slater, Sawyer et al. 1963, Mosmann 1983).
(§2) Cytotoxicity was further assayed as follows. The cells were seeded in 96-well plate as 5*10^4 cells/mL (100 μL/well). A serial dilutions of tested compounds or cisplatin (100, 30, 10, 3.3, 1.1 or 0.37 μM) was added after overnight incubation of the cells at 37° C. and 5% CO2. DMSO was used as a control (0.1%). The cells were incubated for 48 hrs. After that, 15 μl of MTT (5 mg/mL PBS) was added to each well and incubated for another 4 hours. The formazan crystals were solubilized by 100 μL acidified SDS solution (10% SDS/0.01 M HCl). The absorbance was measured after 14 hours of incubation at 37° C. and 5% CO2 at 570 nm by Biotech plate reader. Each experiment was repeated three times and standard deviation was calculated (±). IC50% was calculated as the concentration that cause 50% inhibition for cell growth. The growth of the cells were monitored and the images were acquired by Gx microscopes (GXMGXD202 Inverted Microscope) (10× Eyepiece) after staining with crystal violet.

HepG2 = experiment: MTT cytotoxicity assay, hepatocellular carcinoma cells; assay type: cell-based, human; conditions: for IC50: Homo sapiens, HepG2, MTT, 48 hrs incubation
Description: as §1, §2

HCT-116 cells [1] = experiment: Colony forming assay; assay type: cell-based, human; conditions: HCT-116, 2 μM (method) / 1 μM (result sentence), 10 days, vs DMSO control
Description: HCT-116 cells were seeded in 35 mm cell culture dish (500 cells/ml, 2 ml/dish). After overnight incubation at 37° C. and 5% CO2, the medium was replaced with fresh medium containing either DMSO or 2 μM of 4d. The dishes were returned into the incubator and watched for the formation of single colonies. After 10 days, the experiment was stopped by washing the colonies by ice-cold 1×-PBS and fixed with ice-cold methanol. The colonies were left to air dry, then stained with 0.5% crystal violet. The excess stain was washed off by tap water. The colonies were counted by Gx microscopes (GXMGXD202 Inverted Microscope) (10× Eyepiece) and images were processed by ImageJ 1.47v. The effect of compound 4d on the colony formation of colon cancer cells was evaluated by incubating the cells with 1 μM. […] This confirms the ability of compound 4d to enhance tumor suppressor activities.

Vero-B = experiment: MTT cytotoxicity assay, normal kidney cell line; assay type: cell-based, African green monkey; conditions: Chlorocebus sabaeus, Vero B; Table 1; MTT, 48 hrs incubation; read-out: VERO-B (IC50% μM)
Description: as §1, §2

HCT-116 cells [2] = experiment: Wound-healing assay; assay type: cell-based, human; conditions: HCT-116, 1 μM, images at 0, 4, 24 and 48 hours, vs DMSO
Description: HCT-116 cells were seeded in 6 well plate as 10*10^4 cells per ml (2 ml in each well) and incubated overnight at 37° C. and 5% CO2. On the second day, a scratch was created in each well by using a sterile P200 tip, and then the medium was replaced with fresh medium containing either DMSO or 1 μM of compound 4d. Photomicrograph images were taken at different time points (0, 4, 24 and 48 hours) to monitor the wound closure. After that, the cells were washed two times with ice-cold 1×PBS and fixed with ice-cold methanol for 20 min at 4° C. The fixed cells were washed two times with 1×PBS and stained with 0.5% crystal violet for 30 min. The extra stain was washed off by dH2O until no color in the washing is observed. The images were captured by Gx microscopes (GXMGXD202 Inverted Microscope) (10× Eyepiece) after staining with crystal violet. The size of the wound was measured by using ImageJ 1.47v software. […] This confirms the ability of compound 4d to enhance tumor suppressor activities.

[3] = tested on: p53 in HCT-116 (wt p53) cells; experiment: p53 activation, p53 protein level by flow cytometry; assay type: cell-based, human; conditions: for shift in fluorescence (p53 antibody): 48 hours, untreated 23%
Description: The determination of p53 protein level by flow cytometry was applied because it measures the level in a single cell and determines the heterogeneity of expression within a population of cells. HCT-116 (wt p53) cells were seeded at 5*10^4 cells/mL density in a 6-well plate (2 ml/well). The cells were treated with 1 or 2 μM of compound 4d for 48 hrs, and the cells were collected after trypsin enzyme treatment and washed two times with ice-cold 1×PBS. The cells were fixed with 4% paraformaldehyde for fixation and permeabilization, then washed one time with 1× ice-cold PBS and one time with PBS containing 2% FBS. Then an aliquot of the cells was incubated with an anti-p53 antibody for one hour, and then washed two times with PBS. After that, the same cells were stained with PI (propidium iodide). […] In order to confirm the effect of compound 4d on the activation of p53, we incubated the colon cancer cells with 2 μM of compound 4d, and after 24 hours, the cells were stained with the antibody against p53. […] See FIGS. 6B (1 μM treatment with compound 4d for 48 hours; 52.7% shift in fluorescence) and 6C (2 μM treatment with compound 4d for 48 hours; 60.1% shift in fluorescence) compared to FIG. 6A (untreated cancer cells; 23% shift in fluorescence).

SMILES: O=C(/C=C/c1ccc(Cl)cc1Cl)[C@H]1[C@H](c2ccc(Cl)cc2Cl)[C@H]2CSCN2[C@]12C(=O)Nc1ccccc12 [Compound 4d, (3R,6′S,7′R,7a′S)-7′-(2,4-dichlorophenyl)-6′-((E)-3-(2,4-dichlorophenyl)acryloyl)-1′,6′,7′,7a′-tetrahydro-3′H-spiro[indoline-3,5′-pyrrolo[1,2-c]thiazol]-2-one]
- IC50 (HCT-116; read-out: HCT-116 (IC50% μM)): 1.4 ± 0.6 µM
- IC50 (HCT-116; read-out: HCT-116 (IC50% μg/ml)): 0.8 µg/mL
- selectivity index to the cancer cells (HCT-116; broad spectrum, cancer cells): greater than 2
- IC50 (HepG2; read-out: HepG2 (IC50% μM)): 0.85 ± 0.2 µM
- IC50 (HepG2; read-out: HepG2 (IC50% μg/ml)): 0.5 µg/mL
- SI (HepG2; Selectivity Index from IC50 normal (VERO-B) and IC50 cancer (HepG2)): 5.882
- formation of colonies (HCT-116 cells [1]): able to inhibit the formation of colonies
- IC50 (Vero-B): 5 µM
- wound closure (HCT-116 cells [2]): inhibited wound closure
- shift in fluorescence (p53 antibody) ([3]; HCT-116, 1 μM): 52.7%
- shift in fluorescence (p53 antibody) ([3]; HCT-116, 2 μM): 60.1%
- cell population positive for p53 ([3]; colon cancer cells, 2 μM, 24 hours): significant increase
